From US20050113397A1, “Imidazo[1,2-a]pyridine derivative” (priority 2002, published 2005)
≈ marks a conversion by molar mass, not a printed value.

Experiments:
Assay in all cases: Antifungal activity (MIC), US NCCLS Standard Method M27-A, yeasts
Assay type in all cases: cell-based
Candida glabrata = settings: for MIC: Nakaseomyces glabratus, read-out: MIC (minimal inhibitory concentration for growth)
Procedure: (§1) The antifungal activity of the compound of the invention was determined according to the US NCCLS Standard Method (M27-A, 1997) against yeasts (Candida, Cryptococcus); and according to the US NCCLS Standard Method (M38-P, 1998) against molds (Aspergillus). The result is expressed in values of MIC (minimal inhibitory concentration for growth, μg/ml) in Table 7.

Candida krusei = settings: for MIC: Pichia kudriavzevii, read-out: MIC (minimal inhibitory concentration for growth)
Procedure: as §1

Saccharomyces cerevisiae = settings: for MIC: read-out: MIC (minimal inhibitory concentration for growth)
Procedure: as §1

Compound	MIC (Candida glabrata) [µg/mL]	MIC (Candida krusei) [µg/mL]	MIC (Saccharomyces cerevisiae) [µg/mL]	MIC (minimal inhibitory concentration for growth) (Candida glabrata) [µg/mL]	MIC (minimal inhibitory concentration for growth) (Candida krusei) [µg/mL]	MIC (minimal inhibitory concentration for growth) (Saccharomyces cerevisiae) [µg/mL]
CCc1c(C)c(C#N)c2nc3ccccc3n2c1C1=CC(N)CC1 (stereo not drawn) [Example 95, 1-(3-Amino-1-cyclopenten-1-yl)-2-ethyl-3-methylpyrido[1,2-a]benzimidazole-4-carbonitrile]	32 (≈ 101 µM)	64 (≈ 202 µM)	16 (≈ 50.6 µM)			
CCCCCCc1c(C)c(C#N)c2nc3ccccc3n2c1N1CCCN(C)CC1 [Example 12, 2-n-Hexyl-1-(4-methylhomopiperazin-1-yl)-3-methylpyrido[1,2-a]benzimidazole-4-carbonitrile]	128 (≈ 317 µM)	> 128	> 32			
Cc1c(C(C)C)c(N2CC[C@H](N(C)C)C2)n2c(nc3ccccc32)c1C#N [Example 87, 2-Isopropyl-1-[(3S)-dimethylaminopyrrolidin-1-yl]-3-methylpyrido[1,2-a]benzimidazole-4-carbonitrile]				1	8	2
Cc1c(Cc2cccc(N)c2)c(N2CC[C@H](N(C)C)C2)n2c(nc3ccccc32)c1C#N [Example 60, 2-(3-Aminobenzyl)-1-[(3S)-dimethylaminopyrrolidinyl]-3-methylpyrido[1,2-a]benzimidazole-4-carbonitrile]				16	>128	64
Cc1c(-c2ccccc2)c(N2CC[C@H](N(C)C)C2)n2c(nc3ccccc32)c1C#N.O=CO [Example 6]				<0.063	0.5	<0.063
Cc1c(CCO)c(N2CC[C@H](N(C)C)C2)n2c(nc3ccccc32)c1C#N [Example 66, 1-[(3S)-dimethylaminopyrrolidin-1-yl]-2-(2-hydroxyethyl)-3-methylpyrido[1,2-a]benzimidazole-4-carbonitrile]				32	16	16
CCc1c(C)c(C#N)c2nc3ccccc3n2c1NCCN(CC)CC [Example 1, 1-(2-N′,N′-Diethylaminoethylamino)-2-ethyl-3-methylpyrido[1,2-a]benzimidazole-4-carbonitrile]				2	8	16
CCCCCCc1c(C)c(C#N)c2nc3ccccc3n2c1N1CC(CN(C)C)C1 [Example 11, 2-n-Hexyl-1-[3-(dimethylaminomethyl)azetidin-1-yl]-3-methylpyrido[1,2-a]benzimidazole-4-carbonitrile]	16 (≈ 39.6 µM)	32 (≈ 79.3 µM)	2 (≈ 4.96 µM)			
